Data: ChEMBL document CHEMBL2177100, “Structural optimization and structure-activity relationships of N2-(4-(4-Methylpiperazin-1-yl)phenyl)-N8-phenyl-9H-purine-2,8-diamine derivatives, a new class of reversible kinase inhibitors targeting both EGFR-activating and resistance mutations” (J Med Chem, 2012)
Active and inactive are the calls of the source. No cut-off for these calls is given here.

Key:
[1] = Binding affinity to […] EGFR L747-S752del, Sins mutant by KINOMEscan kinase binding assay
[2] = Binding affinity to […] EGFR […] mutant by KINOMEscan kinase binding assay
HepG2 = assay: Cytotoxicity against human HepG2 cells incubated for 72 hrs by MTT assay; assay type: functional, cell-based; conditions: HepG2, 72 h
[3] = target: Rho-associated protein kinase 2 (Homo sapiens, UniProt O75116); assay: Inhibition of human recombinant ROCK2 by radiometric kinase assay
NCI-H1975 [4] = assay: Antitumor activity against human NCI-H1975 cells xenografted in BALB/c mouse assessed as inhibition of tumor growth at 25 mg/kg, po qd; assay type: functional; conditions: read-out: TGI
HCC827 [5] = assay: Antitumor activity against human HCC827 cells xenografted in BALB/c mouse assessed as complete tumor regression at 5 mg/kg, po qd measured within 15 days compound treatment; assay type: functional, organism-based; parameters: dose 5 mg/kg
[6] = Cmax in Sprague-Dawley rat at 20 mg/kg, po; assay type: ADME, organism-based; parameters: dose 20 mg/kg, route oral; conditions: in vivo
[7] = Clearance in Sprague-Dawley rat at 20 mg/kg, po; assay type: ADME, organism-based; parameters: dose 20 mg/kg, route oral; conditions: in vivo
Rattus norvegicus = assay: Volume of distribution at steady state in Sprague-Dawley rat at 20 mg/kg, po; assay type: ADME, organism-based; parameters: dose 20 mg/kg, route oral; conditions: in vivo
[8] = Tmax in Sprague-Dawley rat at 20 mg/kg, po; assay type: ADME, organism-based; parameters: dose 20 mg/kg, route oral; conditions: in vivo
HCC827 [9] = assay: Antitumor activity against human HCC827 cells xenografted in BALB/c mouse assessed as reduction in Ki67 expression at 1 mg/kg/day, po for 3 days by immunohistochemistry; assay type: functional, organism-based
Mus musculus [10] = assay: Inhibition of EGFR phosphorylation in human NCI-H1975 cells xenografted in BALB/c mouse at 50 mg/kg/day, po for 10 days by immunohistochemistry; assay type: functional, organism-based
Mus musculus [11] = assay: Inhibition of EGFR phosphorylation in human HCC827 cells xenografted in BALB/c mouse at 1 mg/kg/day, po for 3 days by immunohistochemistry; assay type: functional, organism-based
Mus musculus [12] = assay: Toxicity in human NCI-H1975 cells xenografted BALB/c mouse assessed as body weight loss at 50 mg/kg, po qd; assay type: organism-based; parameters: dose 50 mg/kg, route oral; conditions: in vivo
NCI-H1975 [13] = assay: Antitumor activity against human NCI-H1975 cells xenografted in BALB/c mouse assessed as inhibition of tumor growth administered orally once daily; assay type: functional, cell-based
NCI-H1975 [14] = assay: Antitumor activity against human NCI-H1975 cells xenografted in BALB/c mouse assessed as inhibition of tumor growth at 50 mg/kg, po qd; assay type: functional; conditions: read-out: TGI
HCC827 [15] = assay: Antitumor activity against human HCC827 cells xenografted in BALB/c mouse assessed as reduction tumor volume at 20 mg/kg, po qd; assay type: functional, organism-based; parameters: dose 20 mg/kg
HCC827 [16] = assay: Antitumor activity against human HCC827 cells xenografted in BALB/c mouse assessed as reduction tumor volume at 5 mg/kg, po qd; assay type: functional, organism-based; parameters: dose 5 mg/kg
HCC827 [17] = assay: Antitumor activity against human HCC827 cells xenografted in BALB/c mouse assessed as reduction tumor volume at 1 mg/kg, po qd; assay type: functional, organism-based; parameters: dose 1 mg/kg
MDA-MB-231 = assay: Cytotoxicity against human MDA-MB-231 cells incubated for 72 hrs by MTT assay; assay type: functional, cell-based; conditions: MDA-MB-231, 72 h
FaDu = assay: Cytotoxicity against human FADU cells incubated for 72 hrs by MTT assay; assay type: functional, cell-based
A-431 = assay: Cytotoxicity against human A431 cells incubated for 72 hrs by MTT assay; assay type: functional, cell-based; conditions: A-431, 72 h
NCI-H292 = assay: Cytotoxicity against human NCI-H292 cells incubated for 72 hrs by MTT assay; assay type: functional, cell-based; conditions: NCI-H292, 72 h
[18] = target: Mitogen-activated protein kinase 12 (Homo sapiens, UniProt P53778); assay: Inhibition of human recombinant p38gamma by radiometric kinase assay
Chain of Mitogen-activated protein kinase 12 (P53778 whole entry): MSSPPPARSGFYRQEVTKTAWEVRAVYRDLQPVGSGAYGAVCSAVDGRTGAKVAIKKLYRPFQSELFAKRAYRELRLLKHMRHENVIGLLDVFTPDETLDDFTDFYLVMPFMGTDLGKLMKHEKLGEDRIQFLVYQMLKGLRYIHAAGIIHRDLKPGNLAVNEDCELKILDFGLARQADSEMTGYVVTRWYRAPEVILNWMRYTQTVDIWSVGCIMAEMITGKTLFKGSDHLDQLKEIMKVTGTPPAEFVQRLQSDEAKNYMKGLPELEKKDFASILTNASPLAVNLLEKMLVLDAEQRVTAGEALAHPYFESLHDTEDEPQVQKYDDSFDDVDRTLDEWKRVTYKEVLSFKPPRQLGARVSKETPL

[19] = target: Mitogen-activated protein kinase 14 (Homo sapiens, UniProt Q16539); assay: Inhibition of human recombinant p38alpha by radiometric kinase assay
Chain of Mitogen-activated protein kinase 14 (Q16539 whole entry): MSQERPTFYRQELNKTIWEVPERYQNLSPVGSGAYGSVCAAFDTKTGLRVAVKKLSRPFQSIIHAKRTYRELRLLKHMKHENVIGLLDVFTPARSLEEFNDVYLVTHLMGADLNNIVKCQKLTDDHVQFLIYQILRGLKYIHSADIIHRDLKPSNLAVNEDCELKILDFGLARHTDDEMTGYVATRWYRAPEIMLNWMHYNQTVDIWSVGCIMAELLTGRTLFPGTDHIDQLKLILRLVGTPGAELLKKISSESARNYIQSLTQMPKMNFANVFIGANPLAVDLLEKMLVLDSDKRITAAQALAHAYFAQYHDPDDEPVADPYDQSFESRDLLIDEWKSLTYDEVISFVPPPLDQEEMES

[20] = target: Vascular endothelial growth factor receptor 2 (Homo sapiens, UniProt P35968); assay: Inhibition of human recombinant VEGFR2 by radiometric kinase assay
[21] = target: Non-receptor tyrosine-protein kinase TYK2 (Homo sapiens, UniProt P29597); assay: Inhibition of human recombinant TYK2 by radiometric kinase assay
[22] = target: Serine/threonine-protein kinase N2 (Homo sapiens, UniProt Q16513); assay: Inhibition of human recombinant PKN2 by radiometric kinase assay
[23] = target: Serine/threonine-protein kinase PLK1 (Homo sapiens, UniProt P53350); assay: Inhibition of human recombinant PLK1 by radiometric kinase assay
[24] = target: Protein kinase C theta type (Homo sapiens, UniProt Q04759); assay: Inhibition of human recombinant PKCtheta by radiometric kinase assay
Chain of Protein kinase C theta type (Q04759 whole entry): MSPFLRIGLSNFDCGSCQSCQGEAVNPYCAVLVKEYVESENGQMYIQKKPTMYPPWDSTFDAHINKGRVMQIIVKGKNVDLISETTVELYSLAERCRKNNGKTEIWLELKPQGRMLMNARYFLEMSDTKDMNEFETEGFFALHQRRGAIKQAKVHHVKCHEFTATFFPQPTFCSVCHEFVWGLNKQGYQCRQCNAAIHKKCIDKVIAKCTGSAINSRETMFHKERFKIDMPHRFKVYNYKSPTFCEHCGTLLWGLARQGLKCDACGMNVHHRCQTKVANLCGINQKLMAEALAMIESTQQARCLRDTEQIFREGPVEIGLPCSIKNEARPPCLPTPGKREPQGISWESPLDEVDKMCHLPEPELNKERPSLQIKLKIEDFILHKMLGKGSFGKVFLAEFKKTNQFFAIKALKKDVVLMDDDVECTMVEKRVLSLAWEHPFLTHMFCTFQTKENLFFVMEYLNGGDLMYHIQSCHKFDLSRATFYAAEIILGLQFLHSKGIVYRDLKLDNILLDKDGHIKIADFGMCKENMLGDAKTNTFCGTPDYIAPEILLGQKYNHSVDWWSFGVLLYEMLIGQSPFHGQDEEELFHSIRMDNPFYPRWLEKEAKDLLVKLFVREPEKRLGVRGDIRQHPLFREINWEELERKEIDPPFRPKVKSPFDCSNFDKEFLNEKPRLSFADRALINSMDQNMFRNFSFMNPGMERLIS

[25] = target: RAC-alpha serine/threonine-protein kinase (Homo sapiens, UniProt P31749); assay: Inhibition of human recombinant PKBalpha by radiometric kinase assay
[26] = Inhibition of human recombinant PKA by radiometric kinase assay
[27] = target: Serine/threonine-protein kinase pim-2 (Homo sapiens, UniProt Q9P1W9); assay: Inhibition of human recombinant PIM2 by radiometric kinase assay
[28] = target: MAP kinase-activated protein kinase 5 (Homo sapiens, UniProt Q8IW41); assay: Inhibition of human recombinant MK5 by radiometric kinase assay
Chain of MAP kinase-activated protein kinase 5 (Q8IW41 whole entry): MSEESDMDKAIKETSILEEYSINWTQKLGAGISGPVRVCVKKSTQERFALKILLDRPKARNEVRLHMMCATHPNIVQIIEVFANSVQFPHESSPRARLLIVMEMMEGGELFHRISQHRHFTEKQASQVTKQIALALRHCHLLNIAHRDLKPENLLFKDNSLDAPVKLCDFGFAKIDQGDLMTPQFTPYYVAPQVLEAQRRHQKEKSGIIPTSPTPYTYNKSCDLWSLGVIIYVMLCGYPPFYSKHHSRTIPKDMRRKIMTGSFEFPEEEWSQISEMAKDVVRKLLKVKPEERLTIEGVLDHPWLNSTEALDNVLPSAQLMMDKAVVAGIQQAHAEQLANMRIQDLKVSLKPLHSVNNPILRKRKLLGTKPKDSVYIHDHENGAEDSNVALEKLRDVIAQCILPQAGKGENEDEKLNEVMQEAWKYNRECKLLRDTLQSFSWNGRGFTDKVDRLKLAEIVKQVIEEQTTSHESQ

[29] = target: MAP kinase-activated protein kinase 2 (Homo sapiens, UniProt P49137); assay: Inhibition of human recombinant MK2 by radiometric kinase assay
[30] = target: Mitogen-activated protein kinase 9 (Homo sapiens, UniProt P45984); assay: Inhibition of human recombinant JNK2 by radiometric kinase assay
[31] = target: Tyrosine-protein kinase JAK3 (Homo sapiens, UniProt P52333); assay: Inhibition of human recombinant JAK3 by radiometric kinase assay
[32] = target: Interleukin-1 receptor-associated kinase 4 (Homo sapiens, UniProt Q9NWZ3); assay: Inhibition of human recombinant IRAK4 by radiometric kinase assay
Chain of Interleukin-1 receptor-associated kinase 4 (Q9NWZ3 whole entry): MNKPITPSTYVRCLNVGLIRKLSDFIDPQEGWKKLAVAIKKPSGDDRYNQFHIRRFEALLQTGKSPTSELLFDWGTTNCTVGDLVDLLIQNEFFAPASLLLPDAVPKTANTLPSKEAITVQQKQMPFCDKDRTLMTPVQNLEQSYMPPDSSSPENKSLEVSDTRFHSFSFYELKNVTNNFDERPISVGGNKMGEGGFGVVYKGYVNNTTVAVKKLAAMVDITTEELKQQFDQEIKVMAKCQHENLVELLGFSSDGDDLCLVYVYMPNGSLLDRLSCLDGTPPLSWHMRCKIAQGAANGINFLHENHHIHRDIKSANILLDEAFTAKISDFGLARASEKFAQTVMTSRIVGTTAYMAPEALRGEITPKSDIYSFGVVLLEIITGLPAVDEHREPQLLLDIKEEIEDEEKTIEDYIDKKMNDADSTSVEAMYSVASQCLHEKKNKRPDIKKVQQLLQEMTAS

[33] = target: Tyrosine-protein kinase JAK1 (Homo sapiens, UniProt P23458); assay: Inhibition of human recombinant JAK1 by radiometric kinase assay
Chain of Tyrosine-protein kinase JAK1 (P23458 whole entry): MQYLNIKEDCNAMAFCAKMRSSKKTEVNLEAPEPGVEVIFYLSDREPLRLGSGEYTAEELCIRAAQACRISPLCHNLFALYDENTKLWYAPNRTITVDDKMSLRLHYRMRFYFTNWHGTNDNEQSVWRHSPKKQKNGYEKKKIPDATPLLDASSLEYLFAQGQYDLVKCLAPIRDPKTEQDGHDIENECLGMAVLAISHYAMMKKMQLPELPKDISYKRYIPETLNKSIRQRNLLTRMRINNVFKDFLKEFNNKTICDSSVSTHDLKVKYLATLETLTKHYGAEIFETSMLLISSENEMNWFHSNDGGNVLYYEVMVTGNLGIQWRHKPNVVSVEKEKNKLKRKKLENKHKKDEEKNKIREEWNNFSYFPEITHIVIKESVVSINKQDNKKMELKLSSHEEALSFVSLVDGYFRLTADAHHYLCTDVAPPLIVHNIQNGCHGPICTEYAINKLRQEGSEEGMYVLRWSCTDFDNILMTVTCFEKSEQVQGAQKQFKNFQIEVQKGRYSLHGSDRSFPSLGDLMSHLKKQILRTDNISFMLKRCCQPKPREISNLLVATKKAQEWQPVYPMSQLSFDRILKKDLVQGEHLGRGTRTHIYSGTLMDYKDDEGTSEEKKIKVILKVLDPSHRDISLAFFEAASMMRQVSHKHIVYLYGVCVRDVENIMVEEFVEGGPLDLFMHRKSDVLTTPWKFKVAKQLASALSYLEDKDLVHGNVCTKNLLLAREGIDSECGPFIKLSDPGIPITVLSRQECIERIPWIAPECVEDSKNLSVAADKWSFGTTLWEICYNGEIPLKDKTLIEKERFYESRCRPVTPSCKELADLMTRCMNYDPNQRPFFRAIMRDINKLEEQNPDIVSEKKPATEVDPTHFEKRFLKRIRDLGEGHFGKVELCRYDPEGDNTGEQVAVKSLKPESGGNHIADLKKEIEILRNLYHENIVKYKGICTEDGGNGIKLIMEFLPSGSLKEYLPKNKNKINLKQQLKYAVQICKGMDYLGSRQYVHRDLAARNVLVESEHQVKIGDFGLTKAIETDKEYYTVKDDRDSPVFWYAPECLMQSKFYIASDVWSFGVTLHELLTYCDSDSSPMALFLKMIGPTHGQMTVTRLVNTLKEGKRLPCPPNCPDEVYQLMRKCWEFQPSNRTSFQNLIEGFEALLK

[34] = Inhibition of human recombinant CaMK2 by radiometric kinase assay
[35] = Inhibition of human recombinant CK1 by radiometric kinase assay
[36] = target: Proto-oncogene tyrosine-protein kinase Src (Homo sapiens, UniProt P12931); assay: Inhibition of human recombinant SRC by radiometric kinase assay
[37] = target: Hepatocyte growth factor receptor (Homo sapiens, UniProt P08581); assay: Inhibition of human recombinant MET by radiometric kinase assay
[38] = target: Mast/stem cell growth factor receptor Kit (Homo sapiens, UniProt P10721); assay: Inhibition of human recombinant KIT by radiometric kinase assay
Insulin receptor = Insulin receptor (Homo sapiens, UniProt P06213); assay: Inhibition of human recombinant INSR by radiometric kinase assay
[39] = target: Receptor tyrosine-protein kinase erbB-4 (Homo sapiens, UniProt Q15303); assay: Inhibition of human recombinant ERBB4 by radiometric kinase assay
Chain of Receptor tyrosine-protein kinase erbB-4 (Q15303 whole entry): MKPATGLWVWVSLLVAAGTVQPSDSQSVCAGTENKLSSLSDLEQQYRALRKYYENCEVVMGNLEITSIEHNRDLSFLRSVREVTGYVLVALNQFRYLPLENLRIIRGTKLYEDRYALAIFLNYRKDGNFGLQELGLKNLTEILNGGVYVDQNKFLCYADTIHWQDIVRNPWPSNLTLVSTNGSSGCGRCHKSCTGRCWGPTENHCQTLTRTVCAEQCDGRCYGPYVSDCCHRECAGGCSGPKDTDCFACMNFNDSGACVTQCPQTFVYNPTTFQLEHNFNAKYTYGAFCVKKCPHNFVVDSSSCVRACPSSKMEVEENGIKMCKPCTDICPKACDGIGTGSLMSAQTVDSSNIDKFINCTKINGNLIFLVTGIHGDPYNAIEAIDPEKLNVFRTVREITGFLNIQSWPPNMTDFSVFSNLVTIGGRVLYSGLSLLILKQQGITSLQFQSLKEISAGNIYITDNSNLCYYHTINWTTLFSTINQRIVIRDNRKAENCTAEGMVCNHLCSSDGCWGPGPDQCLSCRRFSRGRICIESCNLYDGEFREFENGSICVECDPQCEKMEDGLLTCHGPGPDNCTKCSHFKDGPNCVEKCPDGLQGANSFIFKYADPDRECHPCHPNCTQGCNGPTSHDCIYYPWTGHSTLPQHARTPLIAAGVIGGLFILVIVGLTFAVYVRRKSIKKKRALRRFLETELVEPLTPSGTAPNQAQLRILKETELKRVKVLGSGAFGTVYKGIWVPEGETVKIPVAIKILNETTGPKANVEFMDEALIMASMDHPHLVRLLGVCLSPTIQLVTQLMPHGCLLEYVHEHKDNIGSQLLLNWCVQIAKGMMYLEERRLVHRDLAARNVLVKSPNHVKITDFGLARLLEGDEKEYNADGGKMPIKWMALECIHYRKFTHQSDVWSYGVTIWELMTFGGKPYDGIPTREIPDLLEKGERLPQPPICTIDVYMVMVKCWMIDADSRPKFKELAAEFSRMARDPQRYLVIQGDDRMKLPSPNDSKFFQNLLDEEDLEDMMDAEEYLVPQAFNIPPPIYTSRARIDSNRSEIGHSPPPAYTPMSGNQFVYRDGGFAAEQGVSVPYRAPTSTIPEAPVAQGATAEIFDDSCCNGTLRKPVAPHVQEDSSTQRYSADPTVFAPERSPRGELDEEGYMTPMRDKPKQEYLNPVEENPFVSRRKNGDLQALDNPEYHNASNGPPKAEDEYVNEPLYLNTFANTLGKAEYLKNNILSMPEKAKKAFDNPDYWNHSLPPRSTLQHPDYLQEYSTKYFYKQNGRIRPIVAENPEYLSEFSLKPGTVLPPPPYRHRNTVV

[40] = target: ALK tyrosine kinase receptor (Homo sapiens, UniProt Q9UM73); assay: Inhibition of human recombinant ALK by radiometric kinase assay

## CN1CCN(c2ccc(Nc3ncc4nc(Nc5ccccc5)n(C5CCCC5)c4n3)cc2)CC1
[1]
  Kd: 0.5 nM
[2]
  Kd: 0.5 nM
HepG2
  IC50: > 5000 nM
[3]
  IC50: > 10000 nM
NCI-H1975 [4]
  inhibition in vivo at 25 mg/kg: 35%
HCC827 [5]
  Activity: Active
[6]
  Cmax: 230 ng/mL
[7]
  CL/F: 162 mL/min/kg
Rattus norvegicus
  Vdss: 63.35 L/kg
[8]
  Tmax: 1 h
HCC827 [9]
  Activity: Active
Mus musculus [10]
  inhibition: Active
Mus musculus [11]
  inhibition: Active
Mus musculus [12]
  Activity: 4.4%
NCI-H1975 [13]
  TGI: Dose-dependent effect
NCI-H1975 [14]
  inhibition in vivo at 50 mg/kg: 62%
HCC827 [15]
  TGI: Active
HCC827 [16]
  TGI: Active
HCC827 [17]
  TGI: Active
MDA-MB-231
  IC50: 5000 nM
FaDu
  IC50: 15 nM
A-431
  IC50: 120 nM
NCI-H292
  IC50: 45 nM
[18]
  IC50: > 10000 nM
[19]
  IC50: 230 nM
[20]
  IC50: 20 nM
[21]
  IC50: 6700 nM
[22]
  IC50: > 10000 nM
[23]
  IC50: > 10000 nM
[24]
  IC50: 3600 nM
[25]
  IC50: > 10000 nM
[26]
  IC50: 1100 nM
[27]
  IC50: > 10000 nM
[28]
  IC50: > 10000 nM
[29]
  IC50: > 10000 nM
[30]
  IC50: 1500 nM
[31]
  IC50: 2600 nM
[32]
  IC50: > 10000 nM
[33]
  IC50: 3300 nM
[34]
  IC50: > 10000 nM
[35]
  IC50: > 10000 nM
[36]
  IC50: 290 nM
[37]
  IC50: 6400 nM
[38]
  IC50: 540 nM
Insulin receptor
  IC50: > 10000 nM
[39]
  IC50: 30 nM
[40]
  IC50: 2300 nM
